We go through one compound from publication PMC7139703, “Thiopurine Derivative-Induced Fpg/Nei DNA Glycosylase Inhibition: Structural, Dynamic and Functional Insights” (International Journal of Molecular Sciences, 2020).

The target in the assay is T1, mvNei1 (Acanthamoeba polyphaga mimivirus, UniProt Q5UQ00).
T1 construct: 6His (C); made in house; host or cells: E. coli Rosetta2 (DE3)
Nature of the assay: EMSA, mvNei1 DNA binding to THF-containing DNA duplex. Conditions: Figure 4. As to the method:
Figure 4 Comparative analysis of the effect of 2TX and TXn on Fpg/Nei DNA glycosylases. Enzyme activities were measured as described in the Figure 1 legend using 0.1 nM of a 5′-[^32P]-24-mer DNA duplex containing either an 8-oxoG opposite C for LlFpg or a […] (DHU) opposite G for hNeil1 and mvNei1. The DNA probe was incubated with the indicated protein concentration and 0.2 mM TXn compounds in the presence or absence of 1 mM dithiothreitol (DTT) and TCEP (a representative experiment is illustrated by the upper histograms). […]
The DNA binding activity was measured using EMSA [37]. […] After electrophoresis, the gels were dried and exposed overnight for autoradiography using a Typhoon imager and quantified with ImageQuant software. To evaluate the inhibitor effect of 2TX/TXn on the DNA binding activity of each Fpg/Nei enzyme, we first determined the experimental conditions required to bind 50% of the DNA probes without an inhibitor in the presence of 8% DMSO (limiting enzyme concentration). […] This effect was determined by the addition of the thio-compound in the pre-equilibrium mixture of the enzyme and DNA probe (30 min) and incubated for an additional 30 min at 4 °C. For the best inhibitors of Fpg, a dose-response curve was established from at least three independent experiments and the IC50 was determined (IC50^B, Table 1).

T1 sequence (Q5UQ00 whole entry): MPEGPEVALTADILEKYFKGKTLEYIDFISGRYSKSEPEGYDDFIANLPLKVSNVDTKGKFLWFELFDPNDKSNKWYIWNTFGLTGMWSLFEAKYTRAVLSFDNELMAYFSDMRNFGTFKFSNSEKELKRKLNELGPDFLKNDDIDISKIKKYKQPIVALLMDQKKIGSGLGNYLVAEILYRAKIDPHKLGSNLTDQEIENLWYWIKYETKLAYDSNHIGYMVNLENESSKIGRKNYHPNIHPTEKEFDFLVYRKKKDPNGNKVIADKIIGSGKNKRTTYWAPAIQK

For the compound `O=c1[nH]c(=S)[nH]c2[nH]c(=S)[nH]c12` [TX19], the “effect on mvNei1 DNA binding activity” value is reported as “apparent inhibitory effects”.
